We go through 16 compounds from patent US20250188075A1, “SUBSTITUTED HETEROCYCLIC CSNK1 INHIBITORS” (The Broad Institute, Inc., priority 2022, published 2025).

pIC50: −log10 of the molar value. Where two headings read alike, the source gives them in different places. Where only a bound is given, the exact number is not on record here.

Series [1] is described as follows: Solubility assay (thermodynamic solubility). Format: physicochemical. The note with it: thermodynamic from solid, aqueous buffer, mean. As to the method: Solubility of solid compound in aqueous buffer was determined by an equilibrium shake flask method. A saturated solution of drug in solvent (˜2 mg/ml solvent) was prepared and the solution was mixed for 24 h to ensure that equilibrium has been reached. The solution was centrifuged to remove the insoluble fraction and the concentration of the compound in solution was determined by HPLC-UV using a standard calibration curve (Kerns, E. H. et al., Solubility Methods in: Drug-like Properties: Concepts, Structure Design and Methods, p 276-286. Burlington, MA: Academic Press 2008).

Series [2] concerns the target human CSNK1D (Homo sapiens (Human), UniProt P48730). Nature of the series: CSNK1D assay (ADP-Glo, 1 μM ATP). Format: biochemical. Conditions: median, read-out: CSNK1D IC50 [mol/l] (median). As to the method:
CSNK1D-inhibitory activity of compounds of the present invention in presence of 1 μM adenosine-tri-phosphate (ATP) was quantified employing the CSNK1D assay as described in the following paragraphs. In essence, the enzyme activity is measured by quantification of the adenosine-di-phosphate (ADP), which is generated as a co-product of the enzyme reaction, via the “ADP-Glo™ Kinase Assay” kit from the company Promega. This detection system works as follows: In a first step the ATP not consumed in the kinase reaction is quantitatively converted to CAMP employing an adenylate cyclase (“ADP-Glo-reagent”), then the adenylate cyclase is stopped and the ADP generated in the kinase reaction converted to ATP which generates in a luciferase-based reaction a glow-luminescence signal (“Kinase Detection Reagent”).
Recombinant fusion protein of N-terminal Glutathion-S-Transferase (GST) and full-length human CSNK1D, expressed by baculovirus infected insect cells and purified via Glutathion affinity chromatography, was purchased from Life Technologies (product no. PV3665) and used as enzyme. As substrate for the kinase reaction the biotinylated peptide Btn-Ahx-SGSEGDSESGEEEG (C-terminus in amide form) was used which can be purchased e.g. from the company Biosyntan (Berlin-Buch, Germany).
For the assay 50 nl of a 100-fold concentrated solution of the test compound in DMSO was pipetted into a white 1536-well microtiter plate (Greiner Bio-One, Frickenhausen, Germany), 2 μL of a solution of CSNK1D in aqueous assay buffer [50 mM HEPES pH 7.5, 10% (v/v) glycerol, 10 mM MgCl2, 50 mM NaCl, 1 mM dithiothreitol, 0.01% (w/v) bovine serum albumin, 0.01% (v/v) Triton X-100] were added and the mixture was incubated for 15 min at 22° C. to allow pre-binding of the test compounds to the enzyme before the start of the kinase reaction. Then the kinase reaction was started by the addition of 3 μL of a solution of ATP (1.67 μM=>final conc. in the 5 μL assay volume is 1 μM) and peptide substrate (50 μM=>final conc. in the 5 μL assay volume is 30 μM) in assay buffer and the resulting mixture was incubated for a reaction time of 30 min at 22° C. The concentration of CSNK1D was adjusted depending of the activity of the enzyme lot and was chosen appropriate to have the assay in the linear range, a typical concentration is about 0.5 ng/μL. The reaction was stopped by the addition of 2.5 μL of “ADP-Glo-reagent” (1:1.5 fold diluted with water) and the resulting mixture was incubated at 22° C. for 1 h to convert the ATP not consumed in the kinase reaction completely to CAMP. Subsequently 2.5 μL of the “kinase detection reagent” (1.2 fold more concentrated than recommended by the producer) were added, the resulting mixture was incubated at 22° C. for 1 h and then the luminescence measured with a suitable measurement instrument (e.g. Viewlux™ from Perkin-Elmer). The amount of emitted light was taken as a measure for the amount of ADP generated and thereby for the activity of the CSNK1D.
The data were normalised (enzyme reaction without inhibitor=0% inhibition, all other assay components but no enzyme=100% inhibition).
On the technique in general: In ADP-Glo the light output rises with the ADP produced.

The subject of series [3] is HT-29 cells. Nature of the series: HT29 cell proliferation assay, CTG method. Format: cell-based. The note with it: Homo sapiens; HT-29, CTG, 96 h; median; read-out: 2D-PROLI HT-29 CTG 96 h, IC50 - [mol/l] (median). As to the method:
CELL PROLIFERATION ASSAY CTG METHOD, 384-well version: Day 1: plated 400 cells/30 μL/well in growth medium (DMEM/Ham's F12; (Biochrom; #FG 4815, mit stabilem Glutamin)+FCS (final: 10%); (Biochrom; #S 0415)) in 384-well black plates (Corning #3571). Plated sister wells in a separate plate for time zero determination. Incubated all plates overnight at 37° C. Day 2: added test compounds in serial dilutions using the HP D300 Digital Dispenser and incubated at 37° C. for 96 h. Measured time zero plate: add 30 μL/well CTG solution (Promega CellTiter-Glo solution (catalog #G7573)) to wells in time zero plate; incubated for 2 minutes in a orbital shaker to induce cell lysis; allowed the plate to incubate at room temperature for additional 10 min to stabilize luminescent signal and read luminescence on PheraStar (rapid mode—0.02 sec/well; GAIN 3000). Day 6: Added 30 μL/well CTG solution to all test wells, incubated for 2 minutes in a orbital shaker to induce cell lysis; allowed the plate to incubate at room temperature for additional 10 min to stabilize luminescent signal and read luminescence on PheraStar (rapid mode—0.02 sec/well; GAIN 3000 Proliferation IC50s were calculated using the DRC application in ShiNy Analysis Platform-SNAP.”

[4] abbreviates: read-out: Thermodynamic Solubility [mg/l] (mean).
Where [5] appears, read: read-out: Thermodynamic Solubility [μmol/L] (mean).

Chain of human CSNK1D (P48730 whole entry): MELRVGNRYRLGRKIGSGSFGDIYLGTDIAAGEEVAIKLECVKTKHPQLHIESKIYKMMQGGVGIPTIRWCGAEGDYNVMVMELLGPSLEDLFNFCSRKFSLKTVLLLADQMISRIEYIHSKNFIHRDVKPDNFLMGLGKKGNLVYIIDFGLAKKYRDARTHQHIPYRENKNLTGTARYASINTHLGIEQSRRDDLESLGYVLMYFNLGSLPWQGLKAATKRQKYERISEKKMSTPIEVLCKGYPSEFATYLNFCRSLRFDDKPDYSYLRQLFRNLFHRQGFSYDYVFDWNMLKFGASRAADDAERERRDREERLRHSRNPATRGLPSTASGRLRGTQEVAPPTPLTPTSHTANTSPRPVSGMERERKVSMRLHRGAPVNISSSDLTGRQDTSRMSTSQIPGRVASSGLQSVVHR

Turning to `O=C(Cc1cnc2ccccn12)Nc1cc(-c2[nH]c3cccnc3c2-c2ccccn2)ccn1` [Example 1, 2-imidazo[1,2-a]pyridin-3-yl-N-[4-[3-(2-pyridyl)-^1H-pyrrolo[3,2-b]pyridin-2-yl]-2-pyridyl]acetamide], the solubility thermodynamic at 24 h was 9.6 mg/L in series [1] (setting [4]) and 21.6 µmol/L in series [1] (setting [5]). In addition, the pIC50 is 7.94 in series [2] and 5.57 in series [3].

Turning to `Cn1cc(CC(=O)Nc2cc(-c3[nH]c4cccnc4c3-c3ccccn3)ccn2)cn1` [Example 2, 2-(1-methylpyrazol-4-yl)-N-[4-[3-(2-pyridyl)-^1H-pyrrolo[3,2-b]pyridin-2-yl]-2-pyridyl]acetamide], the solubility thermodynamic at 24 h in series [1] (setting [4]) came out at 85.2 mg/L; in series [1] (setting [5]), 208 µmol/L. Besides, the pIC50 was 7.95 in series [2] and 5.57 in series [3].

`Cc1nc(CC(=O)Nc2cc(-c3[nH]c4cccnc4c3-c3ccccn3)ccn2)cs1` [Example 3, 2-(2-methylthiazol-4-yl)-N-[4-[3-(2-pyridyl)-^1H-pyrrolo[3,2-b]pyridin-2-yl]-2-pyridyl]acetamide]: the solubility thermodynamic at 24 h stood at 9.1 mg/L in series [1] (setting [4]) and 21.3 µmol/L in series [1] (setting [5]). The pIC50 was 8.30 in series [2] and 6.35 in series [3].

As for `O=C(Cc1cnco1)Nc1cc(-c2[nH]c3cccnc3c2-c2ccccn2)ccn1` [Example 4], the solubility thermodynamic at 24 h stood at 25.2 mg/L in series [1] (setting [4]) and 63.7 µmol/L in series [1] (setting [5]). Moreover, the pIC50 in series [3] is 6.23.

Turning to `Cn1cnc(CC(=O)Nc2cc(-c3[nH]c4cccnc4c3-c3ccccn3)ccn2)c1` [Example 5, 2-(1-methylimidazol-4-yl)-N-[4-[3-(2-pyridyl)-^1H-pyrrolo[3,2-b]pyridin-2-yl]-2-pyridyl]acetamide], the solubility thermodynamic at 24 h in series [1] (setting [4]) was above 409 mg/L; in series [1] (setting [5]) it was above 1000 µmol/L. Also, the figures for the pIC50 in series [2] and in series [3] were 7.88 and 5.47, respectively.

As for `O=C(Cc1cnc2ccccc2n1)Nc1cc(-c2[nH]c3cccnc3c2-c2ccccn2)ccn1` [Example 6, N-[4-[3-(2-pyridyl)-^1H-pyrrolo[3,2-b]pyridin-2-yl]-2-pyridyl]-2-quinoxalin-2-yl-acetamide], the pIC50 in series [2] was 8.46; in series [3], 6.90.

For the compound `Cc1nn(C)cc1CC(=O)Nc1cc(-c2[nH]c3cccnc3c2-c2ccccn2)ccn1` [Example 9, 2-(1,3-dimethylpyrazol-4-yl)-N-[4-[3-(2-pyridyl)-^1H-pyrrolo[3,2-b]pyridin-2-yl]-2-pyridyl]acetamide], the solubility thermodynamic at 24 h in series [1] (setting [4]) worked out at 1.3 mg/L; in series [1] (setting [5]) it was 3.07 µmol/L. For the same compound, the pIC50 in series [2] is 8.25; in series [3] it was 6.07.

For `O=C(Cc1ccon1)Nc1cc(-c2[nH]c3cccnc3c2-c2ccccn2)ccn1` [Example 10, 2-isoxazol-3-yl-N-[4-[3-(2-pyridyl)-^1H-pyrrolo[3,2-b]pyridin-2-yl]-2-pyridyl]acetamide], the solubility thermodynamic at 24 h in series [1] (setting [4]) came to 15.4 mg/L; in series [1] (setting [5]) it was 38.9 µmol/L. In addition, the pIC50 in series [2] was 8.25; in series [3], 6.10.

Turning to `Cc1ocnc1CC(=O)Nc1cc(-c2[nH]c3cccnc3c2-c2ccccn2)ccn1` [Example 11, 2-(5-methyloxazol-4-yl)-N-[4-[3-(2-pyridyl)-^1H-pyrrolo[3,2-b]pyridin-2-yl]-2-pyridyl]acetamide], the solubility thermodynamic at 24 h turned out to be 8.4 mg/L in series [1] (setting [4]) and 20.5 µmol/L in series [1] (setting [5]). Moreover, the pIC50 in series [2] is 8.09; in series [3], 5.85.

For the compound `Cc1noc(C)c1CC(=O)Nc1cc(-c2[nH]c3cccnc3c2-c2ccccn2)ccn1` [Example 12, 2-(3,5-dimethylisoxazol-4-yl)-N-[4-[3-(2-pyridyl)-^1H-pyrrolo[3,2-b]pyridin-2-yl]-2-pyridyl]acetamide], the results for the solubility thermodynamic at 24 h in series [1] (setting [4]) and in series [1] (setting [5]) were 9.9 mg/L and 23.3 µmol/L, respectively. The pIC50 in series [2] was 8.30; in series [3] it was 5.92.

Turning to `Cc1cc(CC(=O)Nc2cc(-c3[nH]c4cccnc4c3-c3ccccn3)ccn2)on1` [Example 13, 2-(3-methylisoxazol-5-yl)-N-[4-[3-(2-pyridyl)-^1H-pyrrolo[3,2-b]pyridin-2-yl]-2-pyridyl]acetamide], the solubility thermodynamic at 24 h in series [1] (setting [4]) stood at 65.9 mg/L; in series [1] (setting [5]), 161 µmol/L. The pIC50 in series [2] is 8.25; in series [3], 6.35.

As for `Cc1cc(CC(=O)Nc2cc(-c3[nH]c4cccnc4c3-c3ccccn3)ccn2)n(C)n1` [Example 14], the solubility thermodynamic at 24 h was 4.6 mg/L in series [1] (setting [4]) and 10.9 µmol/L in series [1] (setting [5]). In addition, the results for the pIC50 in series [2] and in series [3] were 8.31 and 6.29, respectively.

Consider `O=C(Cc1cc2ccccn2n1)Nc1cc(-c2[nH]c3cccnc3c2-c2ccccn2)ccn1` [Example 15, 2-pyrazolo[1,5-a]pyridin-2-yl-N-[4-[3-(2-pyridyl)-^1H-pyrrolo[3,2-b]pyridin-2-yl]-2-pyridyl]acetamide], for which the solubility thermodynamic at 24 h in series [1] (setting [4]) turned out to be 0.8 mg/L; in series [1] (setting [5]), 1.8 µmol/L. Further, the pIC50 was 8.43 in series [2] and 6.83 in series [3].

With `Cc1cc(CC(=O)Nc2cc(-c3[nH]c4cccnc4c3-c3ccccn3)ccn2)nn1C` [Example 16, 2-(1,5-dimethylpyrazol-3-yl)-N-[4-[3-(2-pyridyl)-^1H-pyrrolo[3,2-b]pyridin-2-yl]-2-pyridyl]acetamide], the values for the solubility thermodynamic at 24 h in series [1] (setting [4]) and in series [1] (setting [5]) were 2.5 mg/L and 5.9 µmol/L, respectively. In addition, the values for the pIC50 in series [2] and in series [3] were 8.18 and 6.20, respectively.

`Cc1nn(C)c(C)c1CC(=O)Nc1cc(-c2[nH]c3cccnc3c2-c2ccccn2)ccn1` [Example 17, N-[4-[3-(2-pyridyl)-^1H-pyrrolo[3,2-b]pyridin-2-yl]-2-pyridyl]-2-(1,3,5-trimethylpyrazol-4-yl)acetamide]: the solubility thermodynamic at 24 h turned out to be 14.9 mg/L in series [1] (setting [4]) and 34.1 µmol/L in series [1] (setting [5]). Besides, the results for the pIC50 in series [2] and in series [3] were 8.16 and 5.93, respectively.

As to `Cc1nc(C)c(CC(=O)Nc2cc(-c3[nH]c4cccnc4c3-c3ccccn3)ccn2)s1` [Example 18, 2-(2,4-dimethylthiazol-5-yl)-N-[4-[3-(2-pyridyl)-^1H-pyrrolo[3,2-b]pyridin-2-yl]-2-pyridyl]acetamide], the solubility thermodynamic at 24 h is 5.4 mg/L in series [1] (setting [4]) and 12.3 µmol/L in series [1] (setting [5]). Moreover, the pIC50 in series [2] was 8.42; in series [3] it was 6.66.
